Results taken from ChEMBL document CHEMBL1201862, “PubChem BioAssay data set” (2004).
Activity calls are given as the source filed them. For most assays here, no stated cut-off is given here; in the data, actives have a measured IC50 and inactives only a lower limit.

Tests used:
[1] = target: DNA dC->dU-editing enzyme APOBEC-3A (Homo sapiens, UniProt P31941); test: A3A deaminase inhibition for selectivity – biochemical, dose response (AID 504722); format: functional
[2] = target: DNA dC->dU-editing enzyme APOBEC-3G (Homo sapiens, UniProt Q9HC16); test: Dose Response confirmation of small molecule APOBEC3G DNA Deaminase Inhibitors via a fluorescence-based single-stranded DNA deaminase assay. [Related pubchem assays (depositor defined):AID493012, AID493028]; format: functional
[3] = tested on: Vero; test: host cell viability loss, Vero E6 – synthesized analogs, cytotoxicity control for West Nile virus antiviral project, SAR follow-up (AID 2244); format: functional; details: Chlorocebus sabaeus
[4] = tested on: Vero; test: antiviral protection of cells from WNV – synthesized analogs, SAR follow-up (AID 2238); format: functional, cell-based; details: Chlorocebus sabaeus
[5] = A Cell Based Assay for the Identification of Probe candidate Compounds with Anti- Venezuelan Equine Encephalitis virus. [Related pubchem assays: 2409, 2419, 1621, 2238, 2405, 2024, 2065, 2402, 2414, 1635, 1650, 2244 ]; format: functional
[6] = tested on: Vero; test: Vero 76 cell viability after compound exposure – Vero 76 cells, synthesized analogs, cytotoxicity control for West Nile virus antiviral project, SAR follow-up (AID 2414); format: functional; details: Chlorocebus sabaeus
[7] = tested on: Vero; test: Vero cell viability after compound exposure – synthesized analogs, set II, cytotoxicity control for West Nile virus antiviral project, SAR follow-up (AID 2402); format: functional; details: Chlorocebus sabaeus
[8] = target: T1, Ubiquitin-conjugating enzyme E2 N (Homo sapiens, UniProt P61088); format: functional;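 further: Dose-response confirmation in a TR-FRET assay detecting UBC13-driven polyubiquitin chain formation, inhibition measured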
T1 sequence (P61088 whole entry): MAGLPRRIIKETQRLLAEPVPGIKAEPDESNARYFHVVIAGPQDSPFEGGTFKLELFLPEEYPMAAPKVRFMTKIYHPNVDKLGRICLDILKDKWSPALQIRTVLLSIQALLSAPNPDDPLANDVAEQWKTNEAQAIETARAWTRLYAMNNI

[9] = target: Voltage-dependent T-type calcium channel subunit alpha-1H (Homo sapiens, UniProt O95180); test: human CACNA1H calcium influx blockade – cell-based, synthetic library set 1, calcium flux (AID 493022); format: functional
[10] = target: T2, Dual specificity protein phosphatase 6 (Rattus norvegicus, UniProt Q64346); format: functional;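 further: confirmatory in vitro dose-response testing of MKP-3 inhibition; recombinant His-tagged MKP-3 made in E. coli BL21 with OMFP substrate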
T2 sequence (Q64346 whole entry): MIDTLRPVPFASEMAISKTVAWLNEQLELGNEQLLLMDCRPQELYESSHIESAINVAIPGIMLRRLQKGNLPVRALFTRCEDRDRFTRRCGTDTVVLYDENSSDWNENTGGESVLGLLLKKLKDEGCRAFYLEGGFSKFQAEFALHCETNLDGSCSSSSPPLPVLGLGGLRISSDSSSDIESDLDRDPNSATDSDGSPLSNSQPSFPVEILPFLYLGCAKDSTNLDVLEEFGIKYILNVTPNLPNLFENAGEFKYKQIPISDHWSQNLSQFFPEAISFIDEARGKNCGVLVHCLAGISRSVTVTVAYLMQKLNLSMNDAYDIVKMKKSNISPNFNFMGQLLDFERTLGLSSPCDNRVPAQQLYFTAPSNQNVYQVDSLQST

[11] = target: T3, Tyrosine-protein phosphatase non-receptor type 7 (Homo sapiens, UniProt P35236); test: redox-active compounds inhibiting HePTP phosphatase – biochemical, fluorescence, mechanism study (AID 2068); format: functional
T3 sequence (P35236 whole entry): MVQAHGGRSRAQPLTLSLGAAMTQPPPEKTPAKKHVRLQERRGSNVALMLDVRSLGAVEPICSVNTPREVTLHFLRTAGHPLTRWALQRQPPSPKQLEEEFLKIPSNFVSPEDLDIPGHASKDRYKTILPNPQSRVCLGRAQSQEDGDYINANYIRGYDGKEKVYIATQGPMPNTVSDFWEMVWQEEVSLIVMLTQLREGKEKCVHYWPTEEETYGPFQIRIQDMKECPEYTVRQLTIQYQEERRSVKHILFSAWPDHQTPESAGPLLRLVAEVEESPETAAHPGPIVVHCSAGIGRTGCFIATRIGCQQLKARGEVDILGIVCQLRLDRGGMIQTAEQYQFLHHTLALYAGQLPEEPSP

[12] = target: T4, Dual specificity protein phosphatase 3 (Homo sapiens, UniProt P51452); test: SAR VHR1 absorbance Assay for In Vitro dose response studies. [Related pubchem assays (depositor defined):AID1654, AID1661, AID1878, AID1992, AID2004]
[13] = target: T4, Dual specificity protein phosphatase 3; test: SAR VHR1 Fluorescent Assay for In Vitro dose response studies. [Related pubchem assays (depositor defined):AID1654, AID1661, AID1878, AID1992, AID2004, AID2070, AID2085]; format: functional

T4 sequence (P51452 whole entry): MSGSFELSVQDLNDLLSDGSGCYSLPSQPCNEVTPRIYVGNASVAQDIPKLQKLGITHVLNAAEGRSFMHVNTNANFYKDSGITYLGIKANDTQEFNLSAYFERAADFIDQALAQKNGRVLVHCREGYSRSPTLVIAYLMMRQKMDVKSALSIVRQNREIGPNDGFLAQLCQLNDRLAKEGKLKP
Sequence of Voltage-dependent T-type calcium channel subunit alpha-1H (O95180 whole entry): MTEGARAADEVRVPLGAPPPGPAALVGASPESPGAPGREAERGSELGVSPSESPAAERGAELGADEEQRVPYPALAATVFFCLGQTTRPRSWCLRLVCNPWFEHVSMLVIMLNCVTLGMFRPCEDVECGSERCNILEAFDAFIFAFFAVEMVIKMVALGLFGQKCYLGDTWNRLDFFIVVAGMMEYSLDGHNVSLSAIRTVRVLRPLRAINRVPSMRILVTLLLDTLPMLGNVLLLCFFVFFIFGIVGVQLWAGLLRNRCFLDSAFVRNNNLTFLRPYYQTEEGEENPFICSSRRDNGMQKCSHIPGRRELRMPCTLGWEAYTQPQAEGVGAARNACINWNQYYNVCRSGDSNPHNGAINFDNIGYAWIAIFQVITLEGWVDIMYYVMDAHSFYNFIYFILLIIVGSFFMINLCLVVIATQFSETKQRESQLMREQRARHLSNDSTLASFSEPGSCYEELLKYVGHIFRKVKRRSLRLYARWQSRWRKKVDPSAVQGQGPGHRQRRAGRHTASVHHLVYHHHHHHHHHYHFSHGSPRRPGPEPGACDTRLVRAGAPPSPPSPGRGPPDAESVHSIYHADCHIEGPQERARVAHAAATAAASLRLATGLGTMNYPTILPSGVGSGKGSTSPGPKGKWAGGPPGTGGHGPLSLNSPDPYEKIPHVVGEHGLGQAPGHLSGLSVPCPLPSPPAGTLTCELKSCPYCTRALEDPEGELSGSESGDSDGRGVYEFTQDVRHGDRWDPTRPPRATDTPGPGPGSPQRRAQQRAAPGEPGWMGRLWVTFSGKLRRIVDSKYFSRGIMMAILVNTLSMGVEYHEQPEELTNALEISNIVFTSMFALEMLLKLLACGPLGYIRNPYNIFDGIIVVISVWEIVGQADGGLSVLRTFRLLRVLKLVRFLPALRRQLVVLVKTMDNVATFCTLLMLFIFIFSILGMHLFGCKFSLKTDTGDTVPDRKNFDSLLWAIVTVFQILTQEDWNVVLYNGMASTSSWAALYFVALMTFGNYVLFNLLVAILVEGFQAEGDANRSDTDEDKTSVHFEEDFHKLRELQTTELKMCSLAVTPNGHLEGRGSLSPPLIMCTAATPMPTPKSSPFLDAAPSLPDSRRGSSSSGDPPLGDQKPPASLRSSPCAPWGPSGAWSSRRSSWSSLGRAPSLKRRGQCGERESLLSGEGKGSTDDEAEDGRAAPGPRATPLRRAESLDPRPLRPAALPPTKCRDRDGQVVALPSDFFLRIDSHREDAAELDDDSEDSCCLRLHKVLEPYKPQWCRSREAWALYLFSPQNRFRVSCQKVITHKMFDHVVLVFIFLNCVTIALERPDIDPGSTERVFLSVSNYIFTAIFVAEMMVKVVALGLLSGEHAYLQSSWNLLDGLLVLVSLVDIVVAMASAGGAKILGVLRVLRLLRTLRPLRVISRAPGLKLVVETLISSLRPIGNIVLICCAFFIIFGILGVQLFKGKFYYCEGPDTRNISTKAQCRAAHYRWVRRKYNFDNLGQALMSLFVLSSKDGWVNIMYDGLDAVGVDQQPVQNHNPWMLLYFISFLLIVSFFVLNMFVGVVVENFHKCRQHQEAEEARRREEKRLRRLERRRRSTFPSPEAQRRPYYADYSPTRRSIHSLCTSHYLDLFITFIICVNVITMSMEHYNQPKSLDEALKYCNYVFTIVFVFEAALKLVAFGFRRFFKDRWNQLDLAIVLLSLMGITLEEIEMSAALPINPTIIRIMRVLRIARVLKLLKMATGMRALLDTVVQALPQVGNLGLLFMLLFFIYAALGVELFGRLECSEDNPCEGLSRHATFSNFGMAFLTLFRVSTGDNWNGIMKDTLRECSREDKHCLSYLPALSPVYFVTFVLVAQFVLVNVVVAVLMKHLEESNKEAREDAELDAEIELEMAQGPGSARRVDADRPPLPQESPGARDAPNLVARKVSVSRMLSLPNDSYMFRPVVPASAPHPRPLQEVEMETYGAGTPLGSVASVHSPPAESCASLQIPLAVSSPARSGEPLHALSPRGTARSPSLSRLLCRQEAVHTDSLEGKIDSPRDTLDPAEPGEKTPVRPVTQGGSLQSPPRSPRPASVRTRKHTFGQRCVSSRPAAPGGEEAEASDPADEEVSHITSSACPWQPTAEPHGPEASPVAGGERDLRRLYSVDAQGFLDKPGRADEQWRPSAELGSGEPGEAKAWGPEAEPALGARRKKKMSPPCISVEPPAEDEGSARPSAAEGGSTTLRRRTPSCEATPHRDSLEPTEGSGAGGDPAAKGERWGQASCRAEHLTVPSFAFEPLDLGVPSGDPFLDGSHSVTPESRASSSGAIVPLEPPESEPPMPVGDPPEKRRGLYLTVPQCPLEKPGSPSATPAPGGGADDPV
Sequence of DNA dC->dU-editing enzyme APOBEC-3A (P31941 whole entry): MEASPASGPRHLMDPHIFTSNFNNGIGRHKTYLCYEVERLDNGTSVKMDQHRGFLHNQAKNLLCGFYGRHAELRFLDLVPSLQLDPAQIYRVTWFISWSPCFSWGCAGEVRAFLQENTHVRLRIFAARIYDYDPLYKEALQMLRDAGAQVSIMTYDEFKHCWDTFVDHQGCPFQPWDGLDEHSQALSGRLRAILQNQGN
Sequence of DNA dC->dU-editing enzyme APOBEC-3G (Q9HC16 whole entry): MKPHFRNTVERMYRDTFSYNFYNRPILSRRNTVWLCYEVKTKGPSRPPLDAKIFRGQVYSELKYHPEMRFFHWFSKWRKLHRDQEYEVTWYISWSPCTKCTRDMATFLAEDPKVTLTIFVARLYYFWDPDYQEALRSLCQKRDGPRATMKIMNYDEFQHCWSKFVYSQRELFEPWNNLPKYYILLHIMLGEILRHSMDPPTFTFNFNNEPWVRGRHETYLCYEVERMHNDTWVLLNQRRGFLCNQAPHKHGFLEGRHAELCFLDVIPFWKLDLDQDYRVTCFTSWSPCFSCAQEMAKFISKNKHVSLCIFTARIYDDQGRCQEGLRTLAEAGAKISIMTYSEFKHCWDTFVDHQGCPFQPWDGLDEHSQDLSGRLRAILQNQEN

In the case of `Cc1ccc(-c2nnc(S)n2/N=C\c2ccco2)cc1`, the IC50 [1] was > 100 µM (inactive) and the IC50 [2] was 2.86 µM (active).
In the case of `Cc1cccc2c1-c1sc(C(=O)NCCCN3CCC(C)CC3)cc1CO2`, the CC50 [3] was 10 µM (active), the IC50 [4] was > 40 µM (active) and the IC50 [5] was 8.52 µM (active). The CC50 [6] was 20 µM (active), the CC50 [7] was 10.1 µM (active) and the IC50 [8] was > 20 µM (inactive).
In the case of `O=C(COc1ccc(F)cc1)Nc1nnc(-c2ccc3ccccc3c2)o1`, the EC50 [9] was 3.5 µM (active).
With `S=C(c1cn(CCOc2ccccc2)c2ccccc12)N1CCCCC1` the IC50 [10] was > 100 µM (inactive), the IC50 [11] was 31.7 µM (active) and the IC50 [12] was > 100 µM (inactive). The IC50 [13] was > 100 µM (inactive).
